Data reported in PubChem BioAssay AID1963860 (Molecular Pharmacology Branch, DTP, NCI, 2024).
pIC50: −log10 of the molar value.

Tested on: CN0375-F725-PDC KRAS spheroid viability
Assay: Anticancer human tumor CN0375-F725-PDC patient-derived colon carcinoma cell line growth inhibition [KRAS2]
Details: spheroids with HUVEC and MSC; for pIC50: curve of first compound; for viability, T/C: stronger effect = lower value
Method in brief: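 KRAS-mutant tumor cells were grown as spheroids with HUVEC endothelial cells and human MSCs as stroma. Targeted agents were tested alone and with KRAS pathway inhibitors. Doses started at or near clinical Cmax, or 10 microM, descending half-log.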

[1] = second compound 0.1 µM, first compound 0.000316 µM
[2] = second compound 0.1 µM, first compound 0.001 µM
[3] = second compound 0.1 µM, first compound 0.00316 µM
[4] = second compound 0.1 µM, first compound 0.01 µM
[5] = second compound 0.1 µM, first compound 0.0316 µM
[6] = second compound 0.1 µM, first compound 0.1 µM
[7] = second compound 0.316 µM, first compound 0.000316 µM
[8] = second compound 0.316 µM, first compound 0.001 µM
[9] = second compound 0.316 µM, first compound 0.00316 µM
[10] = second compound 0.316 µM, first compound 0.01 µM
[11] = second compound 0.316 µM, first compound 0.0316 µM
[12] = second compound 0.316 µM, first compound 0.1 µM
[13] = second compound 1 µM, first compound 0.000316 µM
[14] = second compound 1 µM, first compound 0.001 µM
[15] = second compound 1 µM, first compound 0.00316 µM
[16] = second compound 1 µM, first compound 0.01 µM
[17] = second compound 1 µM, first compound 0.0316 µM
[18] = second compound 1 µM, first compound 0.1 µM
[19] = second compound 3.16 µM, first compound 0.000316 µM
[20] = second compound 3.16 µM, first compound 0.001 µM
[21] = second compound 3.16 µM, first compound 0.00316 µM
[22] = second compound 3.16 µM, first compound 0.01 µM
[23] = second compound 3.16 µM, first compound 0.0316 µM
[24] = second compound 3.16 µM, first compound 0.1 µM
[25] = second compound 10 µM, first compound 0.000316 µM
[26] = second compound 10 µM, first compound 0.001 µM
[27] = second compound 10 µM, first compound 0.00316 µM
[28] = second compound 10 µM, first compound 0.01 µM
[29] = second compound 10 µM, first compound 0.0316 µM
[30] = second compound 10 µM, first compound 0.1 µM
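Also: spheroids exposed to agents for 7 days.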

Compound	pIC50 (second compound 0.1 µM)	pIC50 (second compound 0.316 µM)	pIC50 (second compound 1 µM)	pIC50 (second compound 3.16 µM)	pIC50 (second compound 10 µM)	viability, T/C [1] [%]	viability, T/C [2] [%]	viability, T/C [3] [%]	viability, T/C [4] [%]	viability, T/C [5] [%]	viability, T/C [6] [%]	viability, T/C [7] [%]	viability, T/C [11] [%]	viability, T/C [12] [%]	viability, T/C [17] [%]	viability, T/C [18] [%]	viability, T/C [23] [%]	viability, T/C [24] [%]	viability, T/C [29] [%]	viability, T/C [30] [%]	further results
CC(C)n1nc(-c2ccc3oc(N)nc3c2)c2c(N)ncnc21 + CNCc1ccccc1-c1csc(C(C)Nc2nc(C)nc3cc(OC)c(OC)cc23)c1	7.24	7.27	8.95	> 9.50	> 9.50	99.7	93.1	80	67	55.3	45.4	91.1	55.9	43.2	37.9	29	0.52	0.44	0.18	0.21	viability, T/C [8]: 83.9%; viability, T/C [9]: 78.5%; viability, T/C [10]: 67%; viability, T/C [13]: 66.2%; viability, T/C [14]: 49.4%; viability, T/C [15]: 37.8%; viability, T/C [16]: 47.7%; viability, T/C [19]: 0.35%; viability, T/C [20]: 0.36%; viability, T/C [21]: 0.33%; viability, T/C [22]: 0.28%; viability, T/C [25]: 0.13%; viability, T/C [26]: 0.17%; viability, T/C [27]: 0.14%; viability, T/C [28]: 0.15%
CC1(C)CCC(CN2CCN(c3ccc(C(=O)NS(=O)(=O)c4ccc(NCC5CCOCC5)c([N+](=O)[O-])c4)c(Oc4cnc5[nH]ccc5c4)c3)CC2)=C(c2ccc(Cl)cc2)C1 + CNCc1ccccc1-c1csc(C(C)Nc2nc(C)nc3cc(OC)c(OC)cc23)c1	5.32	5.55	> 7.50	> 7.50	> 7.50					104	104		90.7	95.5	36.5	42.3	0.26	0.27	0.12	0.14	viability, T/C (second compound 0.1 µM, first compound 0.316 µM): 103%; viability, T/C (second compound 0.1 µM, first compound 1 µM): 96.2%; viability, T/C (second compound 0.1 µM, first compound 3.16 µM): 61.6%; viability, T/C (second compound 0.1 µM, first compound 10 µM): 29.8%; viability, T/C (second compound 0.316 µM, first compound 0.316 µM): 93.4%; viability, T/C (second compound 0.316 µM, first compound 1 µM): 89.5%; viability, T/C (second compound 0.316 µM, first compound 3.16 µM): 45.9%; viability, T/C (second compound 0.316 µM, first compound 10 µM): 18.7%; viability, T/C (second compound 1 µM, first compound 0.316 µM): 40.7%; viability, T/C (second compound 1 µM, first compound 1 µM): 50.9%; viability, T/C (second compound 1 µM, first compound 3.16 µM): 15.2%; viability, T/C (second compound 1 µM, first compound 10 µM): 7.89%; viability, T/C (second compound 3.16 µM, first compound 0.316 µM): 0.18%; viability, T/C (second compound 3.16 µM, first compound 1 µM): 0.2%; viability, T/C (second compound 3.16 µM, first compound 3.16 µM): 0.25%; viability, T/C (second compound 3.16 µM, first compound 10 µM): 0.68%; viability, T/C (second compound 10 µM, first compound 0.316 µM): 0.13%; viability, T/C (second compound 10 µM, first compound 1 µM): 0.13%; viability, T/C (second compound 10 µM, first compound 3.16 µM): 0.16%; viability, T/C (second compound 10 µM, first compound 10 µM): 0.19%
Cn1ncnc1[C@H]1c2n[nH]c(=O)c3cc(F)cc(c23)N[C@@H]1c1ccc(F)cc1 + CNCc1ccccc1-c1csc(C(C)Nc2nc(C)nc3cc(OC)c(OC)cc23)c1	< 7.00	< 7.00	9.20	> 9.50	> 9.50	107	106	97	95.7	95.4	93.6	100	91	88.2	39.4	40.6	0.25	0.42	0.13	0.23	viability, T/C [8]: 101%; viability, T/C [9]: 94.5%; viability, T/C [10]: 86.9%; viability, T/C [13]: 54.1%; viability, T/C [14]: 46.2%; viability, T/C [15]: 47.8%; viability, T/C [16]: 41.5%; viability, T/C [19]: 0.23%; viability, T/C [20]: 0.33%; viability, T/C [21]: 0.31%; viability, T/C [22]: 0.28%; viability, T/C [25]: 0.14%; viability, T/C [26]: 0.33%; viability, T/C [27]: 0.13%; viability, T/C [28]: 0.15%
